Earlier results as cited in patent publication US6579895B2, “Use of a celecoxib composition for fast pain relief” (Pharmacia Corporation, priority 2000, dated 2003).

Tests used:
[1] = target: plasma albumin (Homo sapiens, UniProt P02768); details: following oral administration
[2] = system: post-surgical pain; details: ibuprofen 400 mg; e.g. post-surgical pain

Chain of plasma albumin (P02768 25-609): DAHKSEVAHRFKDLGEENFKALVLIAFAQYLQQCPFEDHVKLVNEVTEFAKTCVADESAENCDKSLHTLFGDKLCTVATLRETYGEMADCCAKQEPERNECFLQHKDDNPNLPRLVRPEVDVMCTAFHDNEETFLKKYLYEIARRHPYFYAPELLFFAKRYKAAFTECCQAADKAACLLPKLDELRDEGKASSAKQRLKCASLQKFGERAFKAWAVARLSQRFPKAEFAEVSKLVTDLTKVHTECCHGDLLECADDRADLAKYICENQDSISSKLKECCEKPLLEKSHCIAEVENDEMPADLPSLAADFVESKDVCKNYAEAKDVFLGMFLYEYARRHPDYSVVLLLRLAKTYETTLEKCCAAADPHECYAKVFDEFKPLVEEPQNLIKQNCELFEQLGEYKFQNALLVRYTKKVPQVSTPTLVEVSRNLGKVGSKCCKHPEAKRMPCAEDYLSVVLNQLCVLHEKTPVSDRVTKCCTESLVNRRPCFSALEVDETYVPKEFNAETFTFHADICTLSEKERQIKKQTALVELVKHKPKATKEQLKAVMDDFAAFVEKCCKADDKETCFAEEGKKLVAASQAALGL

| binding to plasma albumin [1] | Compound | time after administration to an adequate level of suppression of pain [2] |
| --- | --- | --- |
| extensive binding | Cc1ccc(-c2cc(C(F)(F)F)nn2-c2ccc(S(N)(=O)=O)cc2)cc1 [celecoxib, 4-[5-(4-methylphenyl)-3-(trifluoromethyl)-1H-pyrazol-1-y1]benzenesulfonamide] | – |
| – | CC(C)Cc1ccc(C(C)C(=O)O)cc1 (centres unmarked) [Ibuprofen, ibuprofen] | about 1 hour |
